The values that follow are results of earlier work, collected in article PMC4891657, “Orexin 2 Receptor Antagonism is Sufficient to Promote NREM and REM Sleep from Mouse to Man” (Scientific Reports, 2016).

Structures are written as SMILES.

The subject of one data set is OX2R relative to OX1R. To be noted: cited from earlier work.
The subject of a further data set is OX2R. More on the design: method as in PMID 24376396, PMID 24368893. The note with it: mice, 50 mg/kg ref 37, 38; cited from earlier work.

Regarding `COc1ccnc(N2CCC3(CCCN(Cc4c[nH]c5ccccc45)C3=O)CC2)n1` [IPSU], the OX2R/OX1R selectivity with OX2R relative to OX1R is 6.2 fold. In addition, in the data set with OX2R, the “calculated OX2R occupancy achieved” value is 48%. As to `CC1(C)OC[C@H](NC(=O)Nc2ccc(Br)cc2Br)[C@H](c2ccccc2)O1` [JNJ-10397049], the OX2R selective in the data set on OX2R relative to OX1R is ~ 320 x.

As for `Cc1cc(C)nc(N2CC3CN(C(=O)c4c(F)cccc4-n4nccn4)CC3C2)n1` (centres unmarked) [JNJ-42847922], the “binding selectivity for OX2R relative to OX1R” value in the data set on OX2R relative to OX1R was ~ 80 fold. Take `Cc1cc(NC(=O)Nc2ccc(N(C)C)cc2)c2cc(F)cc(F)c2n1` [SB-408124]: in the data set with OX2R relative to OX1R, the OX1R selective was ~ 64 x.
